US20120264703A1, “Methods And Compositions For The Treatment Of Anxiety Disorders, Including Post Traumatic Stress Disorder (PTSD) And Related Central Nervous System (CNS) Disorders” (priority 2010, published 2012)

Key:
[1] = biological target: T1, alkaline phosphatase (Bos taurus, UniProt P19111); assay: Dephosphorylation of phosphocarvedilol by alkaline phosphatase (HPLC); format: biochemical; conditions: alkaline phosphatase 1390 Units, overnight at 37° C., TRIS pH 8.1
T1 construct: purchased Sigma P0114
Method: The dried residue was reconstituted in a 1 mL solution of TRIS (pH 8.1, 0.05M) and NaCl (0.1M) for dephosphorylation with alkaline phosphatase. Dephosphorylation was initiated by adding 10 μL (1390 Units) of alkaline phosphatase (Sigma P0114) and incubating overnight at 37° C. 10 μL aliquots were removed and diluted to 100 μL in mobile phase before analyzing by injecting onto the HPLC column (as described above) in 20 μL amounts. After treatment with the alkaline phosphatase, a carvedilol peak with a retention time of about 14.95 minutes was detected.

[2] = tested on: patients with Post Traumatic Stress Disorder (PTSD); assay: Clinical trial of carvedilol versus placebo in the treatment of PTSD (efficacy scales); format: in vivo, human; set-up: key to Davidson Trauma Scale (DTS) change score / mean change score (DTS): change in DTS total score (34-item patient-rated, max 136); key to Insomnia Severity Index (ISI) change score: change in ISI score (self-rated 7-item scale, max 28); key to Davidson Trauma Scale (DTS) change score, mean change (SD): mean (SD) change in DTS total score (max 136); conditions: for Clinician Administered PTSD Scale (CAPS II) change score: completer only analysis
From the text: The efficacy of carvedilol was examined in a clinical trial using a parallel group, randomized, double-blind method with 50% of the outpatients receiving a flexible dose of alpha and beta blocker carvedilol for treatment of PTSD and the other 50% receiving a flexible close of matching placebo tablets. The trial consisted of a one week screening period followed by baseline symptom measurement and five weeks of PTSD pharmacotherapy. Patient assessments took place each week throughout the course of the trial. Patients between 18 and 70 years of age were eligible for enrollment. A minimum score of 60 was required on the Clinician Administered PTSD Scale (CAPS-II) at the screening visit and all patients met clinical criteria for PTSD in accordance with the Diagnostic and Statistical Manual IV and confirmed by the Mini International Neuropsychological Interview (MINI). Eighty-three subjects were enrolled and randomized to carvedilol or placebo. […] The final efficacy analysis included 38 patients allocated to carvedilol, and 39 patients allocated to placebo. All of the patients, study coordinators, and principal investigators were blinded from the patient treatment allocation. Patients were randomly assigned to kits containing carvedilol or placebo at the baseline visit. At the baseline visit, all patients were titrated to one dose of 3.125 mg carvedilol or placebo in the morning and an additional dose in the evening for the first week of the trial (6.25 mg carvedilol per day). At the discretion of the investigator the dose of carvedilol or placebo could be increased to a maximum of two tablets (6.250 mg carvedilol) in the morning and two tablets (6.250 mg carvedilol) in the evening during the following visit (week 1). At the week 2 visit the investigator could increase the dose of carvedilol or placebo to a maximum of 5 pills daily (15.625 mg carvedilol per day) based on patient tolerability and treatment response. After the second visit investigators were encouraged to maintain patient dose throughout the remainder of the five week trial although they were allowed to decrease the dose in the event that tolerability issues arose. Although a minimum score of 60 on the CAPS-II was required at the screening visit as entry criteria, the Davidson Trauma Scale (DTS) was used as primary outcome measurement. The DTS is a 34-item patient rated scale with a maximum total score of 136. The DTS is designed to measure frequency and severity of three subtypes of PTSD symptoms: intrusion, avoidance and hyperarousal. Patients completed the DTS at the baseline visit and at each visit throughout the course of the trial. Secondary outcome measures included the Insomnia Severity Index (ISI), the Clinician Global Impressions (CGI) Scale, and each of the three DTS subscales. The ISI is a self-rated 7-item scale (maximum score=28) designed to measure insomnia during clinical research. The ISI was completed at each visit throughout the trial. The CGI was also completed during each visit. As an additional secondary outcome, the change in CAPS-II score was evaluated from the screening visit to the last trial visit for patients that completed the trial. The trial data analysis was designed to investigate the hypothesis that carvedilol would provide relief from symptoms for patients clinically diagnosed with PTSD. To evaluate this possibility, an analysis of covariance (ANCOVA) test was conducted on the primary outcome variable and a series of independent samples t tests were conducted on secondary outcome variables. Each statistical test was conducted using SPSS version 19.0 (IBM). All patients that completed the baseline visit and at least one follow up measurement were included in the analysis. […] Therefore, the final completed measurement of PTSD symptoms was used as the end data point in the event that patients terminated from the trial early. […]

[3] = Clinical trial of carvedilol versus placebo in PTSD: adverse events, blood pressure, heart rate; format: in vivo, human
From the text: The efficacy of carvedilol was examined in a clinical trial using a parallel group, randomized, double-blind method with 50% of the outpatients receiving a flexible dose of alpha and beta blocker carvedilol for treatment of PTSD and the other 50% receiving a flexible close of matching placebo tablets. The trial consisted of a one week screening period followed by baseline symptom measurement and five weeks of PTSD pharmacotherapy. Patient assessments took place each week throughout the course of the trial. At the baseline visit, all patients were titrated to one dose of 3.125 mg carvedilol or placebo in the morning and an additional dose in the evening for the first week of the trial (6.25 mg carvedilol per day). At the discretion of the investigator the dose of carvedilol or placebo could be increased to a maximum of two tablets (6.250 mg carvedilol) in the morning and two tablets (6.250 mg carvedilol) in the evening during the following visit (week 1). At the week 2 visit the investigator could increase the dose of carvedilol or placebo to a maximum of 5 pills daily (15.625 mg carvedilol per day) based on patient tolerability and treatment response. After the second visit investigators were encouraged to maintain patient dose throughout the remainder of the five week trial although they were allowed to decrease the dose in the event that tolerability issues arose.

[4] = cited from earlier work
[5] = tested on: male Sprague-Dawley rats; assay: Escape/avoidance behavior after tailshock stress (Example 1); format: in vivo, rat; conditions: compared to animals that did not receive medication
From the text: Subjects are male, Sprague-Dawley (SD) rats. They are approximately 60-days-old and 300-350 g at the time of testing. They are maintained on ad lib food and water except during the stress and escape/avoidance sessions. Subjects are maintained on a 12:12 light/dark cycle, with lights on at 0700. […] The animals that receive shocks are restrained in plastic tubes (Harvard Apparatus, Inc, Holliston, Mass., USA) and have tail electrodes attached. The single shock session consists of forty 3-s, 2-mA tailshocks, presented on a variable time (VT) 3-min schedule, making the shock session approximately 2 h in duration. Escape/avoidance sessions are conducted in 4 operant chambers (Coulbourn, Inc, Allentown, Pa., USA). The chambers are 30.5 cm wide×25.4 cm deep×30.5 cm high and have a lever mounted on one wall. Subjects are allowed approximately 1 min to explore the chamber before the session begins. The trial begins with a warning signal and houselight. […] 60 s of the warning signal, they receive 1.0-mA footshock through the grid floor. […] A […] shock is classified as an “escape”, while a response that occurred during the initial 60 s of the warning signal before the shock is classified as an “avoidance.” The number of escape and avoidance responses by hour across the session, percent avoidance, and the number of leverpresses during the safety period (a putative measure of anxiety) are analyzed. […]

[6] = Pharmacokinetic properties of carvedilol by oral dosage form and transdermal patch (Example 6); format: in vivo, human
Method: The pharmacokinetic properties of orally and transdermal patch delivered carvedilol can be measured in a human subject or animal model using standard procedures. In brief, a carvedilol oral dosage form of between 5-15 mg can be administered to a human subject in a tablet or capsule. A similar dosage can be administered to a human subject from a transdermal patch that is formulated and evaluated for skin permeation (such as as described by Ubaidulla et al., 2007). After administration of carvedilol, blood samples are drawn from the subject at time intervals (such as 1, 2, 3, 5, 8, 12, and 24 hours), plasma is separated by centrifugation, and plasma samples are stored at −70° C. until analyzed. The plasma carvedilol concentration is measured by reverse phase-high performance liquid chromatography (Ubaidulla et al., 2007).
The plasma concentration of carvedilol at different time intervals is subjected to pharmacokinetic analysis to calculate various parameters: maximum plasma concentration (Cmax), time to reach maximum concentration (Tmax), and area under the plasma concentration-time curve (AUC0→24) as described (Ubaidulla et al., 2007). The values of Cmax and Tmax are read directly from the arithmetic plot of time vs plasma concentration of carvedilol. The AUC is calculated by using the trapezoidal rule. […]

[7] = low solubility and low absorption; cited from earlier work
[8] = in vivo; cited from earlier work
[9] = males and females that were not veterans
[10] = males and females that were not veterans (n=31)

T1 sequence (P19111 20-506): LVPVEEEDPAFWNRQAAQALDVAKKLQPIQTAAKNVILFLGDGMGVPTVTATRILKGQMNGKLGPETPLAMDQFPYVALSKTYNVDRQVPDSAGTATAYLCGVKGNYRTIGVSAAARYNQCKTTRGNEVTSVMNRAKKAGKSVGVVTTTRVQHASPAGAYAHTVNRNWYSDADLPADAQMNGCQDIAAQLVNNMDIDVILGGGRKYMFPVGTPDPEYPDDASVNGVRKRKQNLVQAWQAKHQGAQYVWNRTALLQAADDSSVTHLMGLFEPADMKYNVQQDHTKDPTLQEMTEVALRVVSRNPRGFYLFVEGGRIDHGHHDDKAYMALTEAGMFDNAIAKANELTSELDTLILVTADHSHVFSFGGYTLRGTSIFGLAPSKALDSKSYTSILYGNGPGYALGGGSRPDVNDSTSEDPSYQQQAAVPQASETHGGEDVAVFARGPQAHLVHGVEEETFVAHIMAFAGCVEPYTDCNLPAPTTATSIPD

With `COc1ccccc1OCCNCC(COc1cccc2[nH]c3ccccc3c12)OP(=O)([O-])[O-].[Na+].[Na+]` (stereo not drawn) the “generation of carvedilol by enzymatic dephosphorylation (HPLC)” value [1] was “the carvedilol HPLC peak reappeared”.
For `COc1ccccc1OCCNCC(O)COc1cccc2[nH]c3ccccc3c12` (racemic) [carvedilol, (±) 1-(9H-carbazol-4-yloxy)-3-[[2(2-methoxyphenoxy)ethyl]amino]-2-propanol], the “mean change score (DTS)” value ([2]; 15 female assault victims (physical or sexual assault)) was −31.8, the “mean DTS change score” value ([2]; all patients assigned to carvedilol (n=38), baseline to final visit, LOCF, 6.25-15.625 mg per day, five weeks) was −24.6 (SD±23.8) and the “effect size d, change score, carvedilol vs placebo” value ([2]; female assault victims) was 0.95. For the same compound, the “effect size d, DTS Avoidance Subscale, carvedilol vs placebo” value [2, 9] was “d = 0.21”, the “effect size d, DTS Hyperarousal Subscale, carvedilol vs placebo” value [2, 9] was “d = 0.18” and the “effect size d, DTS Intrusiveness Subscale, carvedilol vs placebo” value [2, 9] was “d = 0.61”. For the same compound, the “effect size d, DTS change score, carvedilol vs placebo” value [2, 9] was “d = 0.36”, the “effect size d, Insomnia Severity Index, carvedilol vs placebo” value [2, 9] was “d = 0.47” and the “DTS Avoidance Subscale change score” value [2, 10] was −8.7 ± 12.4. The “DTS Hyperarousal Subscale change score” value [2, 10] was −7.7 ± 6.3, the “DTS Intrusiveness Subscale change score” value [2, 10] was −8.8 ± 8.8 and the “Insomnia Severity Index (ISI) change score” value [2, 10] was −5.8 ± 6.8. For the same compound, the “Davidson Trauma Scale (DTS) change score, mean change (SD)” value ([2]; males and females that were not veterans (n=31, 69% female), LOCF) was −25.2 ± 25.3, the “Clinician Administered PTSD Scale (CAPS II) change score” value [2, 9] was −20.6 ± 22.2 and the “Clinician's Global Impression (CGI) change score” value ([2]; men (n=17)) was −1.2 ± 1.3. For the same compound, the “DTS Avoidance Subscale change score” value ([2]; men (n=17)) was −6.4 ± 8.3, the “DTS Hyperarousal Subscale change score” value ([2]; men (n=17)) was −6.6 ± 7.4 and the “DTS Intrusiveness Subscale change score” value ([2]; men (n=17)) was −5.9 ± 7.5. For the same compound, the “Insomnia Severity Index (ISI) change score” value ([2]; men (n=17)) was −6.8 ± 6.7, the “Davidson Trauma Scale (DTS) change score” value ([2]; men (n=17), baseline to final visit, LOCF) was −18.8 (SD±19.1) and the “Davidson Trauma Scale (DTS) change score” value ([2]; men (n=17), baseline to final visit, LOCF, listed as Carvedilol) was −18.8 ± 19.1. The “Clinician Administered PTSD Scale (CAPS II) change score” value ([2]; men, screening visit to week 7 final visit) was −16.2 ± 19.0, the “Clinician's Global Impression (CGI) change score” value ([2]; women (n=21)) was −1.8 ± 0.2 and the “DTS Avoidance Subscale change score” value ([2]; women (n=21)) was −10.4 ± 14.0. The “DTS Hyperarousal Subscale change score” value ([2]; women (n=21)) was −9.0 ± 8.9, the “DTS Intrusiveness Subscale change score” value ([2]; women (n=21)) was −9.9 ± 8.2 and the “Insomnia Severity Index (ISI) change score” value ([2]; women (n=21)) was −5.1 ± 6.3. For the same compound, the “Davidson Trauma Scale (DTS) change score” value ([2]; women (n=21), baseline to final visit, LOCF) was −29.2 (SD±26.5), the “Davidson Trauma Scale (DTS) change score” value ([2]; women (n=21), baseline to final visit, LOCF, listed as Carvedilol) was −29.2 ± 26.5 and the “Clinician Administered PTSD Scale (CAPS II) change score” value ([2]; women, screening visit to week 7 final visit) was −21.7 ± 25.2. The “patients that reported adverse events” value ([3]; 28 patients assigned to carvedilol) was 66%, the “mean change in diastolic blood pressure” value ([3]; baseline visit to end of study) was −0.7 mm Hg and the “mean change in heart rate” value ([3]; baseline visit to end of study) was −3.7 beats/minute. The “mean change in systolic blood pressure” value ([3]; baseline visit to end of study) was −4.3±9.7 mm Hg, the “adverse events that occurred in over 5% of carvedilol patients” value ([3]; human, in vivo) was “somnolence, headache and common cold” and the “logarithmic partition coefficient, log octanol/buffer pH 7.4” value [4] was 0.61±0.06. The “number of avoidance responses 24 h after tailshock” value [5] was “decrease in the number of avoidance response 24 h later”, the “Cmax, oral versus transdermal patch administration” value ([6]; oral and transdermal patch) was “approximately similar” and the “AUC, transdermal patch relative to oral administration” value ([6]; transdermal patch vs oral) was 2.5 to 3 fold. The “Biopharmaceutics Classification System class” value [7] was “Class 4” and the plasma half-life [8] was “approximately 6 hours”.
